Source: ChEMBL document CHEMBL4402594, “Interrogating the Lactate Dehydrogenase Tetramerization Site Using (Stapled) Peptides” (J Med Chem, 2020)
Structures can show the parent of a compound that is named as a salt. One block for each compound: values may come before it. The source made the active and inactive calls. The rule behind the calls is not given here. Peptide text beside a SMILES is read from it.

Assays:
[1] = target: T1, L-lactate dehydrogenase B chain (Homo sapiens, UniProt P07195); test: Binding affinity to full length human N-terminal His6-tagged LDH-H expressed in Escherichia coli Rosetta (DE3) assessed as effect on tetramerization site at 100 to 200 uM in sodium phosphate buffer at pH 7.6 by WaterLOGSY NMR analysis
Target sequence in this assay (P07195 2-334 limits assumed): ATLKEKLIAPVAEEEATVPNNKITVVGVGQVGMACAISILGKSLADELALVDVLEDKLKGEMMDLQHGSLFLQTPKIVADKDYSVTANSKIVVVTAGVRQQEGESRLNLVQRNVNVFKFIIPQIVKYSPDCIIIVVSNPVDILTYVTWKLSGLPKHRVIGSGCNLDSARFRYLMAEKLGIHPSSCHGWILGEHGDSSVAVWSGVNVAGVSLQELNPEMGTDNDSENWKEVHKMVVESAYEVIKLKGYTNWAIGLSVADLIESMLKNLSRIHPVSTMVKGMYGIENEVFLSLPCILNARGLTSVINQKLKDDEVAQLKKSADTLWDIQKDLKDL

[2] = target: T1, L-lactate dehydrogenase B chain; test: Binding affinity to truncated human N-terminal His6-tagged LDH-H expressed in Escherichia coli Rosetta (DE3) in sodium phosphate buffer at pH 7.6 by WaterLOGSY NMR analysis
Target sequence in this assay (P07195 2-334 limits assumed): as above

[3] = target: T1, L-lactate dehydrogenase B chain; test: Binding affinity to truncated human N-terminal His6-tagged LDH-H expressed in Escherichia coli Rosetta (DE3) after 5 mins by Red-NHS fluorescence dye-based microscale thermophoresis analysis
[4] = target: L-lactate dehydrogenase B chain (Homo sapiens, UniProt P07195, L4A); test: Binding affinity full length human N-terminal His6-tagged LDH-H L3A mutant expressed in Escherichia coli Rosetta (DE3) assessed as tetrameric disruption by nano differential scanning fluorimetry analysis
[5] = test system: L-lactate dehydrogenase B chain (Homo sapiens), P07195 [L4A]; test: Binding affinity to full length human N-terminal His6-tagged LDH-H L3A mutant expressed in Escherichia coli Rosetta (DE3) assessed as change in melting temperature heated up to 95 degree C for 3 mins by nano differential scanning fluorimetry analysis
[6] = test system: L-lactate dehydrogenase B chain (Homo sapiens), P07195 [K7A]; test: Binding affinity to full length human N-terminal His6-tagged LDH-H K6A mutant expressed in Escherichia coli Rosetta (DE3) assessed as melting temperature heated up to 95 degree C for 3 mins by nano differential scanning fluorimetry analysis
[7] = test system: L-lactate dehydrogenase B chain (Homo sapiens), P07195 [T3A]; test: Binding affinity to full length human N-terminal His6-tagged LDH-H T2A mutant expressed in Escherichia coli Rosetta (DE3) assessed as melting temperature heated up to 95 degree C for 3 mins by nano differential scanning fluorimetry analysis
[8] = test system: L-lactate dehydrogenase B chain (Homo sapiens), P07195 [L4A]; test: Binding affinity to full length human N-terminal His6-tagged LDH-H L3A mutant expressed in Escherichia coli Rosetta (DE3) assessed as melting temperature heated up to 95 degree C for 3 mins by nano differential scanning fluorimetry analysis
[9] = test system: L-lactate dehydrogenase B chain (Homo sapiens), P07195 [L8A]; test: Binding affinity to full length human N-terminal His6-tagged LDH-H L7A mutant expressed in Escherichia coli Rosetta (DE3) assessed as melting temperature heated up to 95 degree C for 3 mins by nano differential scanning fluorimetry analysis
[10] = target: T1, L-lactate dehydrogenase B chain; test: Binding affinity to truncated human N-terminal His6-tagged LDH-H expressed in Escherichia coli Rosetta (DE3) assessed as melting temperature heated up to 95 degree C for 3 mins by nano differential scanning fluorimetry analysis
Target sequence in this assay (P07195 2-334 limits assumed): as above

[11] = test system: L-lactate dehydrogenase B chain (Homo sapiens), P07195 [I9A]; test: Binding affinity to full length human N-terminal His6-tagged LDH-H I8A mutant expressed in Escherichia coli Rosetta (DE3) assessed as changed in melting temperature heated up to 95 degree C for 3 mins by nano differential scanning fluorimetry analysis
[12] = target: L-lactate dehydrogenase B chain (Homo sapiens, UniProt P07195, I9A); test: Binding affinity full length human N-terminal His6-tagged LDH-H I8A mutant expressed in Escherichia coli Rosetta (DE3) assessed as tetrameric disruption by nano differential scanning fluorimetry analysis
[13] = target: L-lactate dehydrogenase B chain (Homo sapiens, UniProt P07195, K5A); test: Binding affinity full length human N-terminal His6-tagged LDH-H K4A mutant expressed in Escherichia coli Rosetta (DE3) assessed as tetrameric disruption by nano differential scanning fluorimetry analysis
[14] = target: L-lactate dehydrogenase B chain (Homo sapiens, UniProt P07195, T3A); test: Binding affinity full length human N-terminal His6-tagged LDH-H T2A mutant expressed in Escherichia coli Rosetta (DE3) assessed as tetrameric disruption by nano differential scanning fluorimetry analysis
[15] = target: T1, L-lactate dehydrogenase B chain; test: Binding affinity to full length human N-terminal His6-tagged LDH-H expressed in Escherichia coli Rosetta (DE3) assessed as melting temperature heated up to 95 degree C for 3 mins by nano differential scanning fluorimetry analysis
Target sequence in this assay (P07195 2-334 limits assumed): as above

[16] = test system: L-lactate dehydrogenase B chain (Homo sapiens), P07195 [I9A]; test: Binding affinity to full length human N-terminal His6-tagged LDH-H I8A mutant expressed in Escherichia coli Rosetta (DE3) assessed as melting temperature heated up to 95 degree C for 3 mins by nano differential scanning fluorimetry analysis
[17] = test system: L-lactate dehydrogenase B chain (Homo sapiens), P07195 [E6A]; test: Binding affinity to full length human N-terminal His6-tagged LDH-H E5A mutant expressed in Escherichia coli Rosetta (DE3) assessed as melting temperature heated up to 95 degree C for 3 mins by nano differential scanning fluorimetry analysis
[18] = test system: L-lactate dehydrogenase B chain (Homo sapiens), P07195 [K5A]; test: Binding affinity to full length human N-terminal His6-tagged LDH-H K4A mutant expressed in Escherichia coli Rosetta (DE3) assessed as melting temperature heated up to 95 degree C for 3 mins by nano differential scanning fluorimetry analysis
[19] = target: L-lactate dehydrogenase B chain (Homo sapiens, UniProt P07195, K7A); test: Binding affinity full length human N-terminal His6-tagged LDH-H K6A mutant expressed in Escherichia coli Rosetta (DE3) assessed as tetrameric disruption by nano differential scanning fluorimetry analysis
[20] = target: L-lactate dehydrogenase A chain (Oryctolagus cuniculus) (UniProt P13491); test: Binding affinity to rabbit LDH-5 assessed as acid-induced dimerization by measuring fluorescence recovery at 50 uM pH 7.6 by nano differential scanning fluorimetry analysis
[21] = Conformational stability in sodium phosphate buffer assessed as increase in alpha-helicity with theta 222 band formation at 100 uM by circular dichroism method; type: physicochemical
[22] = target: T1, L-lactate dehydrogenase B chain; test: Binding affinity to full length human N-terminal His6-tagged LDH-H expressed in Escherichia coli Rosetta (DE3) in sodium phosphate buffer at pH 7.6 by WaterLOGSY NMR analysis
Target sequence in this assay (P07195 whole entry, the tested form may be a part): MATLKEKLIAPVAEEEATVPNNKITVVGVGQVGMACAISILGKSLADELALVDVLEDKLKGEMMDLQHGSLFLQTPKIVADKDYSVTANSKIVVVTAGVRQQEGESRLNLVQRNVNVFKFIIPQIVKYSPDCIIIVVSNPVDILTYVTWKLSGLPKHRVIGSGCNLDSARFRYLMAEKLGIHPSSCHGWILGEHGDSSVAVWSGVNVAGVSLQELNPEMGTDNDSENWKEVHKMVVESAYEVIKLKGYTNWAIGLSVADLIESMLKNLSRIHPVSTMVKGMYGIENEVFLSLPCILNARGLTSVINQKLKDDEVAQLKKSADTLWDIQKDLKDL

[23] = Conformational stability in water assessed as helical structural propensity by circular dichroism method; type: physicochemical; conditions: buffer
[24] = Conformational stability in water assessed as helical structural propensity by 2D NMR-ROESY analysis; type: physicochemical; conditions: buffer
[25] = target: T1, L-lactate dehydrogenase B chain; test: Binding affinity to recombinant full length human His-tagged LDH-1 (1 to 322 residues) expressed in Escherichia coli by WaterLOGSY NMR analysis
Target sequence in this assay (P07195 whole entry, the tested form may be a part): as above

[26] = target: T1, L-lactate dehydrogenase B chain; test: Binding affinity to full length human N-terminal His6-tagged LDH-H expressed in Escherichia coli Rosetta (DE3) assessed as saturation transfer at lipophilic residues at 800 uM in sodium phosphate buffer at pH 7.6 by WaterLOGSY NMR analysis
Target sequence in this assay (P07195 2-334 limits assumed): as the sequence (P07195 2-334 limits assumed) above

[27] = Conformational stability in sodium phosphate buffer assessed as helical structural propensity at 200 uM and pH 7.6 at 25 degree C by circular dichroism method; type: physicochemical; conditions: pH 7.6, 200 µM
[28] = target: T1, L-lactate dehydrogenase B chain; test: Binding affinity to recombinant full length human His-tagged LDH-1 (1 to 322 residues) expressed in Escherichia coli assessed as thermal denaturation up to 500 uM by nano differential scanning fluorimetry analysis
Target sequence in this assay (P07195 2-334 limits assumed): as above

[29] = Conformational stability in sodium phosphate buffer assessed as increase in alpha-helicity with strong theta 206 band formation at 100 uM by circular dichroism method; type: physicochemical
[30] = target: T2, L-lactate dehydrogenase A chain (Homo sapiens, UniProt P00338); test: Competitive binding affinity to human N-terminal His6-tagged LDH-5 expressed in Escherichia coli Rosetta (DE3) assessed as protein-compound interaction at N-terminal domain after 5 mins by Red-NHS fluorescence dye-based microscale thermophoresis analysis
[31] = target: T1, L-lactate dehydrogenase B chain; test: Competitive binding affinity to recombinant full length human His-tagged LDH-1 (1 to 322 residues) expressed in Escherichia coli assessed as protein-compound interaction at N-terminal domain after 5 mins by Red-NHS fluorescence dye based microscale thermophoresis analysis
[32] = target: L-lactate dehydrogenase A chain (Oryctolagus cuniculus) (UniProt P13491); test: Binding affinity to rabbit LDH-M assessed as acid-induced dimerization by measuring fluorescence recovery at pH 5 by nano differential scanning fluorimetry analysis
[33] = target: L-lactate dehydrogenase A chain (Oryctolagus cuniculus) (UniProt P13491); test: Binding affinity to rabbit LDH-5 assessed as acid-induced dimerization by measuring fluorescence recovery at pH 7.6 by nano differential scanning fluorimetry analysis
[34] = target: T2, L-lactate dehydrogenase A chain; test: Binding affinity to human N-terminal His6-tagged LDH-5 expressed in Escherichia coli Rosetta (DE3) assessed as thermal denaturation up to 500 uM by nano differential scanning fluorimetry analysis

Sequence of L-lactate dehydrogenase B chain (Homo sapiens), P07195 [L4A] (P07195 whole entry L4A): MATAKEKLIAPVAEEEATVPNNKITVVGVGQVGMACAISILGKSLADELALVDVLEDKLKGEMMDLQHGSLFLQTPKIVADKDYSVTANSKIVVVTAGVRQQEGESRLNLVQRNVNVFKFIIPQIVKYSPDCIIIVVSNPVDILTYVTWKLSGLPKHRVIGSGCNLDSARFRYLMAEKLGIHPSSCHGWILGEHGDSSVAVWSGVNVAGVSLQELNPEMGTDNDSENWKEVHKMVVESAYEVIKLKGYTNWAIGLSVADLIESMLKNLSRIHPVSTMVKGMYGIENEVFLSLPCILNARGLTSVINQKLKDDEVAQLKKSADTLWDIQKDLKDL
Sequence of L-lactate dehydrogenase B chain (Homo sapiens), P07195 [I9A] (P07195 whole entry I9A): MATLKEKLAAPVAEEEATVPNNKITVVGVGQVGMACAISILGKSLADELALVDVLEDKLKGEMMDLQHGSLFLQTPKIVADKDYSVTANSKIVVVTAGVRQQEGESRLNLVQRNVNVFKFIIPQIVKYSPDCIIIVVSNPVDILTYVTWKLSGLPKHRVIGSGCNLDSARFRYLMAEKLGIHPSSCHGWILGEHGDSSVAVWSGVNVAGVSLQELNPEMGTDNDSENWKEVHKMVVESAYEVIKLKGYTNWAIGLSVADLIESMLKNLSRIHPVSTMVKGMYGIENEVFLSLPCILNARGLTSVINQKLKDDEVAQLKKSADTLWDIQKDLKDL
Sequence of L-lactate dehydrogenase B chain (Homo sapiens, UniProt P07195, K7A) (P07195 2-334 K7A limits assumed): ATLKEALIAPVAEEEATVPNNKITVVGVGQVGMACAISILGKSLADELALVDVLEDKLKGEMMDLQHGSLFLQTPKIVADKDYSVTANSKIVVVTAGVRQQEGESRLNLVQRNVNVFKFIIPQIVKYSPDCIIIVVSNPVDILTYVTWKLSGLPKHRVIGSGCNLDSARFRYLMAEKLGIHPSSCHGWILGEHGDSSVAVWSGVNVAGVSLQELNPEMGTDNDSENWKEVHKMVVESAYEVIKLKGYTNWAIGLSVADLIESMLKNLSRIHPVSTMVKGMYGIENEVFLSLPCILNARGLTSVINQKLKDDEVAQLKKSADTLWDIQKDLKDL
Sequence of L-lactate dehydrogenase B chain (Homo sapiens), P07195 [L8A] (P07195 whole entry L8A, the tested form may be a part): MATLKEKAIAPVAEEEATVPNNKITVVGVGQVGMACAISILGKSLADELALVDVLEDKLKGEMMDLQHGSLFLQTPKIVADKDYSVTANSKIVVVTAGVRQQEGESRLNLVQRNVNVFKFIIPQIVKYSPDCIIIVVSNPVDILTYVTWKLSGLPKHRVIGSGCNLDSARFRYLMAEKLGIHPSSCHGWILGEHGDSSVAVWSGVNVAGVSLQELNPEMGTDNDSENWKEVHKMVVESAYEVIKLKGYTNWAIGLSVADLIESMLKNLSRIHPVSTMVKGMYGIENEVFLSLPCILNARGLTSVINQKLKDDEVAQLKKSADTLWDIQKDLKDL
Sequence of L-lactate dehydrogenase B chain (Homo sapiens, UniProt P07195, I9A) (P07195 2-334 I9A limits assumed): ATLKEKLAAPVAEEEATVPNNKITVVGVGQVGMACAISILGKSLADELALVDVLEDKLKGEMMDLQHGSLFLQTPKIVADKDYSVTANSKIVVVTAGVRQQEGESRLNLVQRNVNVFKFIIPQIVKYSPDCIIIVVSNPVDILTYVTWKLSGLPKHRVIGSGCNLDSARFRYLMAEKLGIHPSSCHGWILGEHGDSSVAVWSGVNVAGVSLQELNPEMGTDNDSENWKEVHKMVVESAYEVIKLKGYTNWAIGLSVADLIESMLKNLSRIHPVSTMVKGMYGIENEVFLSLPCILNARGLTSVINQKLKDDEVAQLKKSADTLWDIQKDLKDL
Sequence of L-lactate dehydrogenase B chain (Homo sapiens), P07195 [E6A] (P07195 whole entry E6A): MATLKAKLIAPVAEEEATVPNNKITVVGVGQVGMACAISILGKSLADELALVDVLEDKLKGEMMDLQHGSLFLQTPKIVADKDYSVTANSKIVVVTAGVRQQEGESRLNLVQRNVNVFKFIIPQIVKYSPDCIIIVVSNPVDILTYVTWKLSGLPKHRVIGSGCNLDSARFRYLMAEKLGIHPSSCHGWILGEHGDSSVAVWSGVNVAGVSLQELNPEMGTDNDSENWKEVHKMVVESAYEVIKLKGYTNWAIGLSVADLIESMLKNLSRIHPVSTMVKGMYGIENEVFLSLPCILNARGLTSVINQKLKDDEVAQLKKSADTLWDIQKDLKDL
Sequence of L-lactate dehydrogenase B chain (Homo sapiens, UniProt P07195, T3A) (P07195 2-334 T3A limits assumed): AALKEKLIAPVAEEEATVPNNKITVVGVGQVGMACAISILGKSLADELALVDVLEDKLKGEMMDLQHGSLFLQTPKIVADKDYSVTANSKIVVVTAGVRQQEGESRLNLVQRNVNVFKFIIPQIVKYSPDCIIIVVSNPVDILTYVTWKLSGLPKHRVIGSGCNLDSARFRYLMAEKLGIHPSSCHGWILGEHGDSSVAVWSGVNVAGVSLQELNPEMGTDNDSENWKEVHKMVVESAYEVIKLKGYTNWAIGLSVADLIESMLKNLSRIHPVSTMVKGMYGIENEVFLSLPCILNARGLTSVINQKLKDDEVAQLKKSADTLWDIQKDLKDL
Sequence of L-lactate dehydrogenase B chain (Homo sapiens, UniProt P07195, L4A) (P07195 2-334 L4A limits assumed): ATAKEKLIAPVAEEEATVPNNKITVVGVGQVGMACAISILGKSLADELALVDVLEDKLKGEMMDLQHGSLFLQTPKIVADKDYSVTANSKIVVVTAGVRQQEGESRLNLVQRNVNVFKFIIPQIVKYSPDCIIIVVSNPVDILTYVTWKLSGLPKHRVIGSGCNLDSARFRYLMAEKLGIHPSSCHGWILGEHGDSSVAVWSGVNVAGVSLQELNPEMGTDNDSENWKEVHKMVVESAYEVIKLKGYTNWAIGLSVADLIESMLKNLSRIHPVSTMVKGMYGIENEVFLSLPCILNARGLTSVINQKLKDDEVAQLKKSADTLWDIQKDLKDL
Sequence of L-lactate dehydrogenase B chain (Homo sapiens), P07195 [K5A] (P07195 whole entry K5A): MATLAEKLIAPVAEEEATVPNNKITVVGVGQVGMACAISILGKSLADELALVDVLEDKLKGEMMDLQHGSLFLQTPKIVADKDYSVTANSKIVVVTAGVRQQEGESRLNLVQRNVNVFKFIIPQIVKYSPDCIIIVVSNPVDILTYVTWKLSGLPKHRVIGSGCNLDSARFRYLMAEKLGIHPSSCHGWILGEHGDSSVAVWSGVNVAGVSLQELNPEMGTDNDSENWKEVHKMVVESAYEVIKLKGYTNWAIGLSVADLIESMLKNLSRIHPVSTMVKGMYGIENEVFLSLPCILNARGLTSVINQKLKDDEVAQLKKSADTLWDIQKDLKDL
Sequence of L-lactate dehydrogenase B chain (Homo sapiens), P07195 [T3A] (P07195 whole entry T3A): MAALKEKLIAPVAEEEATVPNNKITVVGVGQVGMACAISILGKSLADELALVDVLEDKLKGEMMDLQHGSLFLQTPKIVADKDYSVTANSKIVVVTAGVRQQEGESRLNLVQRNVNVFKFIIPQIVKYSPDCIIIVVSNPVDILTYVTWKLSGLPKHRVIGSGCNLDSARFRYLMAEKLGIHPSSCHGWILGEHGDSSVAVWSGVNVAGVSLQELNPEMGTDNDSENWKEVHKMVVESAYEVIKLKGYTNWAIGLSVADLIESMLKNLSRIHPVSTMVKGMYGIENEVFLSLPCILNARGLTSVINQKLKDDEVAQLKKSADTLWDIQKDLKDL
Sequence of L-lactate dehydrogenase B chain (Homo sapiens, UniProt P07195, K5A) (P07195 2-334 K5A limits assumed): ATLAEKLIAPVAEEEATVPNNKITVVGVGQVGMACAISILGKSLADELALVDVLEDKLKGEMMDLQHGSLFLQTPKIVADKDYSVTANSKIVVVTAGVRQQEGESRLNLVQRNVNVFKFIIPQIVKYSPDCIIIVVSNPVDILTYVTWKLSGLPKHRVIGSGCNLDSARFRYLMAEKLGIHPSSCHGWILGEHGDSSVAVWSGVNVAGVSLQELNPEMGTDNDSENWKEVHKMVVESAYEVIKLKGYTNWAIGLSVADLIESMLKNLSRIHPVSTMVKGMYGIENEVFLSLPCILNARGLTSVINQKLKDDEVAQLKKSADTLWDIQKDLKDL

Activity [1]: inactive
Compound: H-ATLKEALI-NH2

Activity [1]: inactive
Compound: H-ATLKEKAI-NH2

Activity [2]: Active
Activity [3]: inactive
Compound: CC[C@H](C)[C@H](NC(=O)[C@H](CC(C)C)NC(=O)[C@H](CCCCN)NC(=O)[C@H](CCC(=O)O)NC(=O)C(C)(C)NC(=O)[C@H](CC(C)C)NC(=O)[C@@H](NC(=O)[C@H](C)N)[C@@H](C)O)C(N)=O (HELM PEPTIDE1{A.T.L.[Aib].E.K.L.I.[am]}$$$$V2.0)

EC50 [4]: 624 mM
ΔTm [5]: 13.3 °C
Tm [6]: 67.9 °C
Tm [7]: 72.4 °C
Tm [8]: 61.2 °C
Tm [9]: 55.6 °C
Tm [10]: 57.5 °C
ΔTm [11]: 24.6 °C
EC50 [12]: 233 mM
EC50 [13]: 991 mM
EC50 [14]: 978 mM
Tm [15]: 74.5 °C
Tm [16]: 49.9 °C
Tm [17]: 73.3 °C
Tm [18]: 65.8 °C
EC50 [19]: 954 mM
Compound: N=C(N)N [GUANIDINE HYDROCHLORIDE]

Activity [1]: inactive
Compound: H-ATLKAKLI-NH2

Activity [20]: Active
Stability [21]: Stable
Kd [22]: 1.02 mM
Stability [23]: Unstable
Stability [24]: Unstable
Activity [25]: Not Active
Activity [26]: Active
Compound: H-ATLKEKLI-NH2

Kd [3]: > 1 mM
Compound: CC[C@H](C)C(NC(=O)[C@H](CC(C)C)NC(=O)[C@H](CCCCN)NC(=O)[C@H](CCC(=O)O)NC(=O)[C@@H]1CSCc2cccc(c2)CSC[C@H](N)C(=O)N[C@@H](C)C(=O)N[C@@H]([C@@H](C)O)C(=O)N[C@@H](CC(C)C)C(=O)N1)C(N)=O (stereo partly drawn) (HELM PEPTIDE1{C.A.T.L.C.E.K.L.[CC[C@H](C)C(N[*:1])C(=O)[*:2]].[am]}|CHEM1{[c1cc(C[*:1])cc(C[*:2])c1]}$PEPTIDE1,CHEM1,1:R3-1:R1|PEPTIDE1,CHEM1,5:R3-1:R2$$$V2.0)

Activity [1]: inactive
Compound: H-ATLKEKLA-NH2

Activity [1]: inactive
Compound: H-GTLKEKLI-NH2

Kd [22]: 1.49 mM
Compound: H-ATLKDQLI-OH

Activity [1]: inactive
Compound: H-ATLKEKLG-NH2

Stability [27]: Unstable
Activity [1]: inactive
Compound: Ac-TLKEKLI-NH2

Activity [1]: inactive
Compound: H-ATAKEKLI-NH2

Activity [1]: inactive
Compound: H-AALKEKLI-NH2

Activity [1]: inactive
Compound: H-ATLAEKLI-NH2

Activity [2]: Active
Activity [3]: inactive
Compound: CC[C@H](C)[C@H](NC(=O)[C@H](CC(C)C)NC(=O)C(C)(C)NC(=O)[C@H](CCC(=O)O)NC(=O)[C@H](CCCCN)NC(=O)[C@H](CC(C)C)NC(=O)[C@@H](NC(=O)[C@H](C)N)[C@@H](C)O)C(N)=O (HELM PEPTIDE1{A.T.L.K.E.[Aib].L.I.[am]}$$$$V2.0)

Activity [28]: inactive
Stability [29]: Stable
Activity [30]: inactive
Activity [31]: inactive
Activity [32]: inactive
Activity [33]: Active
Activity [34]: inactive
Compound: CC[C@H](C)[C@H](NC(=O)[C@H](CC(C)C)NC(=O)[C@H](CCCCN)NC(=O)[C@@H]1CSCc2cccc(c2)CSC[C@H](N)C(=O)N[C@@H]([C@@H](C)O)C(=O)N[C@@H](CC(C)C)C(=O)N[C@@H](CCCCN)C(=O)N1)C(N)=O (HELM PEPTIDE1{C.T.L.K.C.K.L.I.[am]}|CHEM1{[c1cc(C[*:1])cc(C[*:2])c1]}$PEPTIDE1,CHEM1,1:R3-1:R1|PEPTIDE1,CHEM1,5:R3-1:R2$$$V2.0)

Stability [27]: Unstable
Activity [1]: inactive
Compound: H-ATLKEKL-NH2

Activity [1]: inactive
Compound: H-ATGKEKLI-NH2

Kd [3]: > 1 mM
Compound: CC[C@H](C)[C@@H]1NC(=O)[C@H](CC(C)C)NC(=O)[C@@H](NC(=O)[C@H](CCC(=O)O)NC(=O)[C@H](CCCCN)NC(=O)[C@H](CC(C)C)NC(=O)[C@@H](NC(=O)[C@H](C)N)[C@@H](C)O)CSCc2cccc(c2)CSC[C@@H](C(N)=O)NC(=O)[C@H](C)NC1=O (HELM PEPTIDE1{A.T.L.K.E.C.L.I.A.C.[am]}|CHEM1{[c1cc(C[*:1])cc(C[*:2])c1]}$PEPTIDE1,CHEM1,6:R3-1:R1|PEPTIDE1,CHEM1,10:R3-1:R2$$$V2.0)

Kd [22]: 1.05 mM
Compound: H-ATLKEKLIAPVAE-NH2

Kd [3]: > 1 mM
Compound: CC[C@H](C)[C@@H]1NC(=O)[C@H](CC(C)C)NC(=O)[C@@H](NC(=O)[C@H](CCC(=O)O)NC(=O)[C@H](CCCCN)NC(=O)[C@H](CC(C)C)NC(=O)[C@@H](NC(=O)[C@H](C)N)[C@@H](C)O)CCCCNC1=O (HELM PEPTIDE1{A.T.L.K.E.K.L.I}$PEPTIDE1,PEPTIDE1,6:R3-8:R2$$$V2.0)
